{"source": "patent US8445712B2", "about": "“Phospholipid derivative and pH-responsive liposomes” (NOF Corporation, priority 2009, dated 2013)", "experiment": "Measurement test of pH-sensitiveness of liposome (release of enclosed pyranine/DPX at a given pH)", "assay_type": "physicochemical", "conditions": "Example 15 (Table 2) compared with Example 19 (Table 3); 11 mol % derivative in EYPC liposome", "method": "Using the liposomes prepared in Examples 5-13 and Comparative Example 1, pH-sensitiveness measurement tests were performed.\nTo the liposome solution obtained in Example 5 was added phosphate buffered saline (hereinafter to be indicated as “PBS”) to adjust the lipid concentration of the liposome to 1.6 mmol/l. The PBS (2469 μl) adjusted to a given pH with 1N hydrochloric acid was placed in a quartz cell, a liposome dispersion (31 μl) was added thereto at 37° C. to adjust the lipid concentration to 20 μmol/l. After incubation at 37° C. for 15 min, fluorescence intensity (F15min) was measured. In addition, 10% aqueous Triton X-100 (manufactured by Sigma-Aldrich Japan Co. Ltd.) solution (25 μl) was added thereto, and the mixture was stirred, and the fluorescence intensity (Fmax) was measured.\nThe release (%) was calculated by the following formula.\n[formula] F15min: fluorescence intensity at 15 min after liposome addition F0: fluorescence intensity at t=0 by measurement with PBS at pH 7.4 Fmax: fluorescence intensity after addition of Triton"}
{"substance": "Octaglycerolglutaryl Distearylphosphatidylethanolamine 1,2-Cyclohexanedicarboxylic Acid Derivative [DSPE-CHexPG8G]", "values": [{"measurement": "pH sensitive property (comparison)", "value": "stronger pH sensitive property"}]}
